Reference: patent US20040198800A1, “Lipoxygenase inhibitors as hypolipidemic and anti-hypertensive agents” (priority 2002, published 2004)

Legend:
[1] = tested on: high fructose fed (HFF) rats; assay: Example 2: effect of lipoxygenase inhibitors on serum metabolic components of HFF rats; format: in vivo, Sprague-Dawley rats; conditions: for Cholesterol, Day 15 / Cholesterol, Day 19: serum total cholesterol; for Cholesterol, Day 19 / Glucose, Day 19 / FFA, Day 19 / Insulin, Day 19 / TG, Day 19: Day 19 after 4 days BID oral gavage (NDGA 250 mg/kg, BW 755c 100 mg/kg); for Glucose, Day 19: 3 hours after last dose
Experimental: Male rats were initially divided into HFF or chow (control) groups and maintained for 14 days on the prescribed diet. […] On days 15-19 all groups were treated by oral gavage twice daily with either drug or vehicle. On days 15 and 19 serum was collected for analysis. On day 20, the groups were subdivided to receive either LPS or vehicle (saline). Post-LPS treatment, the animals were sacrificed and their livers were isolated for analysis.
Male Sprague-Dawley rats weighing approximately 180-200 g first maintained on a rat chow diet and then were divided into four groups, three of which were switched to a high-fructose diet (Harlan Teklad, Madison, Wis.) that provided 60% of total calories as fructose (Day 1). On day 15 of treatment, the rats were fasted for 4 hours and tail vein blood was collected for baseline measurements of serum TG, glucose, insulin and free fatty acids (FFA) as previously described (Gowri et al., Am. J. Hypertension, 12: 744-746 (1999)). […] The chow group (diet control) was treated with vehicle. During the treatment regimen the animals were maintained on high-fructose diet. […] On day 20, four animals in each group were injected (iv) with 0.5 mg/kg BW Salmonella enterifdis endotoxin (lipopolysaccharide, LPS) or normal saline under light anaesthesia. After 2 hours, serum was collected for corticosterone measurement, as described previously (Kraemer et al., Endocrinology, 143: 801-806 (2002)), and then the animals were sacrificed and tissues removed, snap-frozen in liquid nitrogen and stored at −80° C. until analyzed. The local committee on animal care approved all animal protocols.
Statistical analysis were performed by either paired or unpaired t-test using GraphPad Prism version 3.00 for Windows, GraphPad Software, San Diego Calif. USA. A difference between groups was considered significant if P was less than 0.05. Normalized Western Blot data were obtained as a ratio of the units measured for phosphorylated protein divided by the units measured for total protein. Statistical analyses were performed on the normalized data.

[2] = tested on: high-fructose diet fed rats; assay: Example 1: in vivo efficacy of 5-LO inhibitors in diet-induced model of hypertriglyceridemia and hypertension (serum TG, FFA, insulin, glucose, body weight); design: species or system Sprague-Dawley rats; conditions: oral gavage twice a day for 5 days; for effect on serum triglycerides: NDGA 250 mg/kg (p=0.0004), BW 755c 100 mg/kg (p=0.0002), day 0 vs day 5, FIG. 1; for effect on serum insulin levels: NDGA 250 mg/kg (p=0.003); for effect on serum insulin levels / effect on increase in serum free fatty acids during treatment / effect on serum glucose: BW 755c 100 mg/kg; for effect on increase in serum free fatty acids during treatment / effect on serum glucose: NDGA 250 mg/kg
Source text: Male Sprague-Dawley rats weighting 175-200 g were used in these studies. […]. Rats were first maintained on a chow diet for ˜1 wk and then were divided into four groups (7 or 8 animals in each group). Three groups were switched to a high-fructose diet (Harlan Teklad, Madison, Wis.) that provided 60% of total calories as fructose. The fourth group was maintained on normal chow to serve as an overall control group. After 14 days on the high-fructose diet, the degree of hypertriglyceridemia was evaluated by determining the total plasma TG levels. On day 0 of treatment, tail vein blood was collected for baseline measurements of serum TG, glucose, insulin, and FFA. […] All animals were dosed two times a day for 5 days (days 1-5), delivered by oral gavage. On day 5 of treatment (approximately 3 hours after the oral dose) vein blood was collected for measurements of serum TG, glucose, insulin, and FFA. During the treatment period, rats were maintained on their prescribed diets. Body weights were measured on day 0 and day 5.
Serum samples were used to measure TG and glucose concentrations by enzymatic […] methods using Sigma Diagnostic kits (St. Louis, Mo.). Serum insulin concentrations were by RIA using a Linco Rat Insulin RIA kit (St. Charles, Mo.). FFA concentrations were measured using the nonesterified fatty acid (NEFA) C kit by the ACS-ACOD method following the instructions of the manufacturer.
Data was statistically analyzed using paired t-tests to determine significance.

[3] = background statement; cited from earlier work
diabetic rat model = conditions: Babu et al. 1997; cited from earlier work
in vivo animal models = conditions: Maya et al. 2000; Scribner et al. 2000; cited from earlier work
[4] = Day 15 = baseline before drug treatment, mean ± S.E., n = 7-8
[5] = serum, Day 15 = baseline before drug treatment, mean ± S.E., n = 7-8

Compound: NC1=NN(c2cccc(C(F)(F)F)c2)CC1 [BW 755c, 4,5-dihydro-1-(3-(trifluoromethyl)phenyl)-1H-pyrazol-3-amine]
- effect on serum total cholesterol ([1]; four days BID oral treatment): Neither of these effects was observed
- Cholesterol, Day 15 [1, 4]: 107.6 ± 3 mg/dL
- Cholesterol, Day 19 ([1]; mean ± S.E., n = 7-8): 104.5 ± 2 mg/dL
- Glucose, Day 15 ([1]; serum, Day 15 = baseline before drug treatment, 4 h fasted, mean ± S.E., n = 7-8): 119 ± 7 mg/dL
- FFA, Day 15 [1, 5]: 554 ± 71 μEq/L
- Insulin, Day 15 [1, 5]: 1.6 ± 0.3 ng/mL
- TG, Day 15 [1, 5]: 296 ± 31 mg/dL
- Glucose, Day 19 ([1]; serum, mean ± S.E., n = 7-8): 114 ± 7 mg/dL
- FFA, Day 19 ([1]; serum, mean ± S.E., n = 7-8): 504 ± 42 μEq/L
- Insulin, Day 19 ([1]; serum, mean ± S.E., n = 7-8): 1.7 ± 0.3 ng/mL
- TG, Day 19 ([1]; serum, mean ± S.E., n = 7-8): 112 ± 20(^4) mg/dL
- effect on serum triglycerides [2]: significantly reduced
- effect on serum insulin levels [2]: no effect
- effect on increase in serum free fatty acids during treatment [2]: ameliorated
- effect on serum glucose [2]: no effect

Compound: COc1cc(/C=C/C(=O)CC(=O)/C=C/c2ccc(O)c(OC)c2)ccc1O [Curcumin]
- bioavailability [3]: poorly bioavailable
- properties in in vivo diabetic rat model (diabetic rat model): hypolidemic properties

Compound: C[C@H](Cc1ccc(O)c(O)c1)[C@@H](C)Cc1ccc(O)c(O)c1 [NDGA, nordihydroguaiaretic acid]
- bioavailability [3]: poorly bioavailable
- effect on fasting blood glucose ([1]; four days BID oral treatment): without significantly altering
- effect on fasting serum insulin ([1]; four days BID oral treatment): significantly decreased
- effect on serum total cholesterol ([1]; four days BID oral treatment): significantly reduced
- Cholesterol, Day 15 [1, 4]: 118.6 ± 3 mg/dL
- Cholesterol, Day 19 ([1]; mean ± S.E., n = 7-8): 98.3 ± 4(^7) mg/dL
- FFA, Day 15 [1, 5]: 599 ± 51 μEq/L
- Insulin, Day 15 [1, 5]: 2.3 ± 0.3 ng/mL
- TG, Day 15 [1, 5]: 384 ± 48 mg/dL
- Glucose, Day 19 ([1]; serum, mean ± S.E., n = 7-8): 122 ± 8 mg/dL
- FFA, Day 19 ([1]; serum, mean ± S.E., n = 7-8): 611 ± 101 μEq/L
- Insulin, Day 19 ([1]; serum, mean ± S.E., n = 7-8): 0.9 ± 0.1(′) ng/mL
- TG, Day 19 ([1]; serum, mean ± S.E., n = 7-8): 97 ± 6 mg·s/dL
- properties in in vivo animal models (in vivo animal models): hypolipidemic and antihypertensive properties
- effect on serum triglycerides [2]: significantly reduced
- effect on serum insulin levels [2]: significantly lowered
- effect on increase in serum free fatty acids during treatment [2]: ameliorated
- effect on serum glucose [2]: without increasing serum glucose
